# Assay results: patent publication US20260053811A1, “METHODS OF TREATING HYPERTENSION IN OBESE SUBJECTS” (Mineralys Therapeutics, Inc., priority 2022, published 2026)
# Test system: hypertensive subjects
# Test: Estimated glomerular filtration rate (eGFR, CKD-EPI equation)
# Format: in vivo, human
# Settings: for Estimated Glomerular Filtration Rate, Mean (SD) Change from Baseline / Estimated Glomerular Filtration Rate, Mean (SD) Observed: Part 1; for Estimated Glomerular Filtration Rate, Mean Change from Baseline / Estimated Glomerular Filtration Rate, Mean Observed: Part 2; for Change in estimated glomerular filtration rate (eGFR): across dosing cohorts
# Description: In contrast, mean eGFR for the Placebo group was relatively stable throughout treatment, reaching a mean maximal reduction of −2.80 mL/min/1.73 m^2 at Week 2 (range: −0.83 mL/min/1.73 m^2 to −2.80 mL/min/1.73 m^2). Estimated glomerular filtration rate was estimated using the CKD-EPI equation.
smiles,measurement,setting,value
CC(=O)N[C@H]1CC[C@H](NC(=O)CN2CCN(c3nncc(-c4ccc(C)cc4)n3)CC2)CC1 [Compound A HBr],"Estimated Glomerular Filtration Rate, Mean (SD) Change from Baseline","Week 5, 100 mg QD",−10.50 (10.94) mL/min/1.73 m^2
same,"Estimated Glomerular Filtration Rate, Mean (SD) Observed","Week 5, 100 mg QD",66.19 (19.58) mL/min/1.73 m^2
same,"Estimated Glomerular Filtration Rate, Mean (SD) Change from Baseline","Week 6, 12.5 mg BID",−6.45 (8.05) mL/min/1.73 m^2
same,"Estimated Glomerular Filtration Rate, Mean (SD) Observed","Week 6, 12.5 mg BID",74.70 (16.86) mL/min/1.73 m^2
same,"Estimated Glomerular Filtration Rate, Mean (SD) Change from Baseline","Week 6, 12.5 mg QD",−6.28 (6.77) mL/min/1.73 m^2
same,"Estimated Glomerular Filtration Rate, Mean (SD) Observed","Week 6, 12.5 mg QD",73.39 (20.48) mL/min/1.73 m^2
same,"Estimated Glomerular Filtration Rate, Mean (SD) Change from Baseline","Week 6, 25 mg BID",−8.02 (9.17) mL/min/1.73 m^2
same,"Estimated Glomerular Filtration Rate, Mean (SD) Observed","Week 6, 25 mg BID",72.64 (15.33) mL/min/1.73 m^2
same,"Estimated Glomerular Filtration Rate, Mean (SD) Change from Baseline","Week 6, 50 mg QD",−2.83 (8.61) mL/min/1.73 m^2
same,"Estimated Glomerular Filtration Rate, Mean (SD) Observed","Week 6, 50 mg QD",74.63 (16.59) mL/min/1.73 m^2
same,"Estimated Glomerular Filtration Rate, Mean (SD) Change from Baseline","Week 6, 100 mg QD",−9.94 (12.91) mL/min/1.73 m^2
same,"Estimated Glomerular Filtration Rate, Mean (SD) Observed","Week 6, 100 mg QD",66.19 (21.44) mL/min/1.73 m^2
same,"Estimated Glomerular Filtration Rate, Mean (SD) Change from Baseline","Week 7, 12.5 mg BID",−7.03 (8.98) mL/min/1.73 m^2
same,"Estimated Glomerular Filtration Rate, Mean (SD) Observed","Week 7, 12.5 mg BID",75.85 (21.29) mL/min/1.73 m^2
same,"Estimated Glomerular Filtration Rate, Mean (SD) Change from Baseline","Week 7, 12.5 mg QD",−7.17 (8.80) mL/min/1.73 m^2
same,"Estimated Glomerular Filtration Rate, Mean (SD) Observed","Week 7, 12.5 mg QD",72.50 (22.45) mL/min/1.73 m^2
same,"Estimated Glomerular Filtration Rate, Mean (SD) Change from Baseline","Week 7, 25 mg BID",−7.85 (9.47) mL/min/1.73 m^2
same,"Estimated Glomerular Filtration Rate, Mean (SD) Observed","Week 7, 25 mg BID",72.22 (13.89) mL/min/1.73 m^2
same,"Estimated Glomerular Filtration Rate, Mean (SD) Change from Baseline","Week 7, 50 mg QD",−5.46 (10.42) mL/min/1.73 m^2
same,"Estimated Glomerular Filtration Rate, Mean (SD) Observed","Week 7, 50 mg QD",69.68 (12.23) mL/min/1.73 m^2
same,"Estimated Glomerular Filtration Rate, Mean (SD) Change from Baseline","Week 7, 100 mg QD",−9.50 (12.17) mL/min/1.73 m^2
same,"Estimated Glomerular Filtration Rate, Mean (SD) Observed","Week 7, 100 mg QD",66.96 (21.02) mL/min/1.73 m^2
same,"Estimated Glomerular Filtration Rate, Mean (SD) Change from Baseline","Week 8, 12.5 mg BID",−6.66 (7.92) mL/min/1.73 m^2
same,"Estimated Glomerular Filtration Rate, Mean (SD) Observed","Week 8, 12.5 mg BID",76.32 (19.63) mL/min/1.73 m^2
same,"Estimated Glomerular Filtration Rate, Mean (SD) Change from Baseline","Week 8, 12.5 mg QD",−3.67 (8.10) mL/min/1.73 m^2
same,"Estimated Glomerular Filtration Rate, Mean (SD) Observed","Week 8, 12.5 mg QD",76.00 (21.00) mL/min/1.73 m^2
same,"Estimated Glomerular Filtration Rate, Mean (SD) Change from Baseline","Week 8, 25 mg BID",−5.55 (9.22) mL/min/1.73 m^2
same,"Estimated Glomerular Filtration Rate, Mean (SD) Observed","Week 8, 25 mg BID",75.11 (14.81) mL/min/1.73 m^2
same,"Estimated Glomerular Filtration Rate, Mean (SD) Change from Baseline","Week 8, 50 mg QD",−4.64 (9.87) mL/min/1.73 m^2
same,"Estimated Glomerular Filtration Rate, Mean (SD) Observed","Week 8, 50 mg QD",72.54 (16.89) mL/min/1.73 m^2
same,"Estimated Glomerular Filtration Rate, Mean (SD) Change from Baseline","Week 8, 100 mg QD",−7.83 (11.62) mL/min/1.73 m^2
same,"Estimated Glomerular Filtration Rate, Mean (SD) Observed","Week 8, 100 mg QD",68.42 (20.14) mL/min/1.73 m^2
same,"Estimated Glomerular Filtration Rate, Mean Change from Baseline","Week 1, 100 mg QD",−9.65 mL/min/1.73 m^2
same,"Estimated Glomerular Filtration Rate, Mean Observed","Week 1, 100 mg QD",70.73 mL/min/1.73 m^2
same,"Estimated Glomerular Filtration Rate, Mean Change from Baseline","Week 2, 100 mg QD",−8.05 mL/min/1.73 m^2
same,"Estimated Glomerular Filtration Rate, Mean Observed","Week 2, 100 mg QD",72.07 mL/min/1.73 m^2
same,"Estimated Glomerular Filtration Rate, Mean Change from Baseline","Week 3, 100 mg QD",−7.33 mL/min/1.73 m^2
same,"Estimated Glomerular Filtration Rate, Mean Observed","Week 3, 100 mg QD",72.69 mL/min/1.73 m^2
same,"Estimated Glomerular Filtration Rate, Mean Change from Baseline","Week 4, 100 mg QD",−7.20 mL/min/1.73 m^2
same,"Estimated Glomerular Filtration Rate, Mean Observed","Week 4, 100 mg QD",72.92 mL/min/1.73 m^2
same,"Estimated Glomerular Filtration Rate, Mean Change from Baseline","Week 5, 100 mg QD",−8.69 mL/min/1.73 m^2
same,"Estimated Glomerular Filtration Rate, Mean Observed","Week 5, 100 mg QD",71.23 mL/min/1.73 m^2
same,"Estimated Glomerular Filtration Rate, Mean Change from Baseline","Week 6, 100 mg QD",−10.87 mL/min/1.73 m^2
same,"Estimated Glomerular Filtration Rate, Mean Observed","Week 6, 100 mg QD",68.04 mL/min/1.73 m^2
same,"Estimated Glomerular Filtration Rate, Mean Change from Baseline","Week 7, 100 mg QD",−7.34 mL/min/1.73 m^2
same,"Estimated Glomerular Filtration Rate, Mean Observed","Week 7, 100 mg QD",72.82 mL/min/1.73 m^2
same,"Estimated Glomerular Filtration Rate, Mean Change from Baseline","Week 8, 100 mg QD",−7.95 mL/min/1.73 m^2
same,"Estimated Glomerular Filtration Rate, Mean Observed","Week 8, 100 mg QD",72.43 mL/min/1.73 m^2
same,Change in estimated glomerular filtration rate (eGFR),,dose-dependent and reversible reduction in eGFR
same,Change in estimated glomerular filtration rate (eGFR),listed as lorundrostat,dose-dependent and reversible reduction in eGFR
